One test addresses T1, NEU1 (Homo sapiens, UniProt Q99519).
T1 construct: His; made in house; host or cells: HEK293 cells (cell lysate, unpurified)
The test can be described thus: Inhibition assay, 4MU-NANA cleavage, NEU1. The format is biochemical. The procedure: (§1) 4MU-NANA was then added to the mixture, making the final concentration of 4MU-NANA as 50 μM and the total volume of the reaction mixture as 20 μL. […] Assays were performed with duplicates for each point and IC50 was obtained by plotting the data with Graphpad™ Prism 5.0.

In a further test the target is T2, NEU3 (Homo sapiens, UniProt Q9UQ49).
T2 construct: MBP (N); made in house; host or cells: E. coli
T2 sequence (Q9UQ49 1-428): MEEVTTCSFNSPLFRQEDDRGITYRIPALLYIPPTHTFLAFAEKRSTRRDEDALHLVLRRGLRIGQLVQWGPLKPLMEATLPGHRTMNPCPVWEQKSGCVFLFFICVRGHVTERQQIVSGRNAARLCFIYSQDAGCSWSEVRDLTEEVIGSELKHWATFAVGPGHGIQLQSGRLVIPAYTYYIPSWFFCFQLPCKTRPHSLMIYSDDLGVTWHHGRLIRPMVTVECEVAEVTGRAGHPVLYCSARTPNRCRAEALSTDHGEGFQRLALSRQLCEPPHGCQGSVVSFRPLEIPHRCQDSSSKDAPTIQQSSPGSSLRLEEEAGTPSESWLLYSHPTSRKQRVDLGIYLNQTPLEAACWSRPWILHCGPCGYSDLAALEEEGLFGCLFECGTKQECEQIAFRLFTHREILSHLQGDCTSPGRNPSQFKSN
Description: Inhibition assay, 4MU-NANA cleavage, NEU3. The format is biochemical. The procedure: as §1

The next test has as its target T3, NEU4 (Homo sapiens, UniProt Q8WWR8).
T3 construct: GST; made in house; host or cells: E. coli
T3 sequence (Q8WWR8 1-484): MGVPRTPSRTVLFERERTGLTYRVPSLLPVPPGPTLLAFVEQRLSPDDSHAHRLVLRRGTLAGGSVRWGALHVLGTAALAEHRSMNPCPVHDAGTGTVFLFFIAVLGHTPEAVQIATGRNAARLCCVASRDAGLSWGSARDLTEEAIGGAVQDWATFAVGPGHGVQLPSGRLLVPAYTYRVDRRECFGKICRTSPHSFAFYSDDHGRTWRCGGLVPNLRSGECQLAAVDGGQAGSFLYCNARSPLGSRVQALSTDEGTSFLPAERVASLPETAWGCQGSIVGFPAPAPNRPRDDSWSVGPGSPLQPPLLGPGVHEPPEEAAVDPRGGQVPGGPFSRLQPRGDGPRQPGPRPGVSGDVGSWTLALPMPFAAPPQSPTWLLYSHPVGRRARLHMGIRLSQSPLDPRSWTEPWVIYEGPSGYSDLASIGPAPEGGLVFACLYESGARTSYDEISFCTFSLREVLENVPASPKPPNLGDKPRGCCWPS
The test can be described thus: Inhibition assay, 4MU-NANA cleavage, NEU4. The format is biochemical. The procedure: as §1

The test system of the next test is NEU1, NEU2, NEU3, NEU4. Description: Target isoenzyme and selectivity from IC50 data of Table I. Particulars: from IC50 values of Table I. The format is biochemical, human.
The next test has as its target T4, NEU2 (Homo sapiens, UniProt Q9Y3R4).
T4 construct: MBP (N); made in house; host or cells: E. coli
Description: Inhibition assay, 4MU-NANA cleavage, NEU2. Particulars: 4MU-NANA as the substrate; pH 5.5. The format is biochemical. The procedure: as §1

[1] abbreviates: 4MU-NANA as the substrate, pH 4.5, read-out: IC50 NEU1.
Setting [2] is: compounds of Table I, read-out: IC50 against neu3.
[3] abbreviates: compounds of Table I, read-out: IC50 against neu4.
Where [4] appears, read: 4MU-NANA as the substrate, pH 4.5, read-out: IC50 NEU4.
Setting [5] is: 4MU-NANA as the substrate, pH 4.5, read-out: IC50 NEU3.

Like-named read-outs stand apart in the source and are kept apart here.

Our source for the IC50 and Selectivity values is patent US20220110919A1, “METHODS OF MODULATING LEUKOCYTES ACTIVATION AND THROMBOCYTE CLEARANCE WITH INHIBITORS OF SPECIFIC NEURAMINIDASE ISOENZYMES” (The Governors of the University of Alberta, priority 2018, published 2022).

A word on the IC50: it is the midpoint of a concentration-inhibition curve.

T4 sequence (Q9Y3R4 whole entry): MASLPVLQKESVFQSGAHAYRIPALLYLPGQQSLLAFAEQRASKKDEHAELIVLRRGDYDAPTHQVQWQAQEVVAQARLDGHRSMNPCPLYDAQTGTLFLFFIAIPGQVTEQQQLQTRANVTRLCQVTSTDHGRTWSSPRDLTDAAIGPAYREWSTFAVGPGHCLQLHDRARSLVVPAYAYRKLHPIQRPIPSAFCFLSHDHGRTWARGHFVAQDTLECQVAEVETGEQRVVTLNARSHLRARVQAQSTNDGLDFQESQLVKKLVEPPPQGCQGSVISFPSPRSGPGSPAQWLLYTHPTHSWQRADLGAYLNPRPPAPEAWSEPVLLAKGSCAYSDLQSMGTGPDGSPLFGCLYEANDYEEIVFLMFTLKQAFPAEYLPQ

With `CCCCC(C)C(=O)N[C@H]1[C@H]([C@H](O)[C@H](O)CO)OC(C(=O)O)=C[C@@H]1O` (mixture of isomers) [compound 72, 5-(2-Methyl)hexanamido(S/R)-2,6-anhydro-3,5-dideoxy-d-glycero-d-galacto-non-2-enonic acid], the IC50 on NEU1 (setting [1]) came to 0.55 ± 0.07 µM.

Consider `CCCCC(C)C(=O)N[C@H]1[C@H]([C@H](O)[C@H](O)CNC(C)=O)OC(C(=O)O)=C[C@@H]1O` (mixture of isomers) [compound 74, 5-(2-Methyl)hexanamido(S/R)-9-acetanamido-2,6-anhydro-3,5-dideoxy-d-glycero-d-galacto-non-2-enonic acid], for which the IC50 on NEU1 (setting [1]) came to 0.42 ± 0.07 µM.

In the case of `CC(=O)N[C@@H]1C(N=[N+]=[N-])C=C(C(=O)O)OC1CNOCc1ccccc1` (stereo in doubt) [5c], the IC50 on NEU3 (setting [2]) is < 1 µM.

`COc1ccc(-c2cn(C[C@@H](O)[C@@H](O)[C@@H]3OC(C(=O)O)=C[C@H](O)[C@H]3NC(C)=O)nn2)cc1` [7e]: the IC50 on NEU4 (setting [3]) is ≤ 3 µM.

As to `CC(=O)N[C@H]1[C@H]([C@H](O)[C@H](O)Cn2cc(-c3ccc(F)cc3)nn2)OC(C(=O)O)=C[C@@H]1O` [7f], the IC50 at NEU4 (setting [3]) is ≤ 3 µM. This molecule registered a Selectivity with NEU1, NEU2, NEU3, NEU4 of 10.

On to `CC(=O)N[C@H]1[C@H]([C@H](O)[C@H](O)Cn2cc(-c3ccc(C(F)(F)F)cc3)nn2)OC(C(=O)O)=C[C@@H]1O` [7g], for which, at NEU4 (setting [3]), the IC50 is ≤ 10 µM.

On to `CC(=O)N[C@@H]1C(O)C=C(C(=O)O)OC1C(O)C(O)Cn1cc(-c2ccc(C(=O)O)cc2)nn1` (stereo partly shown) [7h], for which the IC50 on NEU4 (setting [3]) is ≤ 3 µM.

Turning to `CC(=O)N[C@@H]1C(O)C=C(C(=O)O)OC1C(O)C(O)Cn1cc(-c2ccc(-c3ccccc3)cc2)nn1` (stereo partly shown) [7i], the IC50 on NEU4 (setting [3]) was < 1 µM.

With `CCC(=O)N[C@H]1C=C(C(=O)O)O[C@@H]([C@H](O)[C@H](O)CO)[C@@H]1NC(C)=O` [25a, 5-Acetamido-2,6-anhydro-4-propionamido-3,4,5-trideoxy-D-glycero-D-galacto-non-2-enonic acid], the IC50 at NEU1 (setting [1]), at NEU4 (setting [4]) and at NEU3 (setting [5]) was > 500 µM each time.

In the case of `CCCCC(=O)N[C@H]1C=C(C(=O)O)O[C@@H]([C@H](O)[C@H](O)CO)[C@@H]1NC(C)=O` [25b, 5-Acetamido-2,6-anhydro-4-pentanamido-3,4,5-trideoxy-D-glycero-D-galacto-non-2-enonic acid], the IC50 at NEU1 (setting [1]), at NEU4 (setting [4]) and on NEU3 (setting [5]) was > 500 µM in each case.

As for `CC(=O)N[C@H]1[C@H]([C@H](O)[C@H](O)CO)OC(C(=O)O)=C[C@@H]1NC(=O)C1CC1` [25c, 5-Acetamido-2,6-anhydro-4-cyclopropanecarboxamido-3,4,5-trideoxy-D-glycero-D-galacto-non-2-enonic acid], the 50% inhibitory concentration (IC50) on NEU1 (setting [1]), on NEU4 (setting [4]) and on NEU3 (setting [5]) was > 500 µM throughout.

With `CC(=O)N[C@H]1[C@H]([C@H](O)[C@H](O)CO)OC(C(=O)O)=C[C@@H]1NC(=O)C1CCC1` [25d, 5-Acetamido-2,6-anhydro-4-cyclobutanecarboxamido-3,4,5-trideoxy-D-glycero-D-galacto-non-2-enonic acid], the IC50 at NEU1 (setting [1]), at NEU4 (setting [4]) and at NEU3 (setting [5]) was > 500 µM each time.

Turning to `CC(=O)N[C@H]1[C@H]([C@H](O)[C@H](O)Cn2cc(-c3ccc(C(=O)O)cc3)nn2)OC(C(=O)O)=C[C@@H]1N=[N+]=[N-]` [compound 13], the IC50 at NEU1 (setting [1]) and against NEU2 was > 500 µM each time. The molecule also returned a Selectivity in the test on NEU1, NEU2, NEU3, NEU4 of 20.

As for `CC(=O)NC1C(N)C=C(C(=O)O)OC1C(O)C(O)Cn1cc(-c2ccc(C(=O)O)cc2)nn1` (stereo not shown) [compound 15], the IC50 at NEU1 (setting [1]), at NEU4 (setting [4]), on NEU2 and at NEU3 (setting [5]) was > 500 µM each time.

For the molecule `CC(=O)NC1C(NC(=O)NCCC(=O)O)C=C(C(=O)O)OC1C(O)C(O)Cn1cc(-c2ccc(C(=O)O)cc2)nn1` (stereo not shown) [compound 18], the IC50 at NEU1 (setting [1]) and on NEU3 (setting [5]) was > 500 µM in each case.

In the case of `CC(=O)N[C@@H]1C(O)C=C(C(=O)O)OC1C(O)C(O)Cn1cc(CNC(=O)c2ccccc2)nn1` (stereo partly shown) [compound 26], the IC50 on NEU4 (setting [3]) was ≤ 3 µM.

On to `CC(=O)N[C@@H]1C(O)C=C(C(=O)O)OC1C(O)C(O)Cn1cc(-c2ccc(NC(=O)c3ccccc3)cc2)nn1` (stereo partly shown) [compound 27], for which the IC50 at NEU4 (setting [3]) is ≤ 10 µM.

In the case of `CC(=O)N[C@H]1C(C(O)C(O)Cn2cc(CO)nn2)OC(C(=O)O)=C[C@H]1O` (stereo partly shown) [compound 28, C9-4HMT-DANA], the results for the IC50 at NEU1 (setting [1]), on NEU3 (setting [5]) and on NEU3 (setting [2]) were > 500 µM, 80 ± 10 µM and ≤ 100 µM, respectively.

For the molecule `CCCC(=O)N[C@H]1[C@H]([C@H](O)[C@H](O)CO)OC(C(=O)O)=C[C@@H]1O` [compound 30, 5-Butyramido-2,6-anhydro-3,5-dideoxy-D-glycero-D-galacto-non-2-enonic acid], the IC50 at NEU1 (setting [1]) was 8.4 ± 0.5 µM; at NEU1 (compounds of Table I, read-out: IC50 against neu1), ≤ 10 µM; at NEU4 (setting [4]), 8.4 ± 0.4 µM; on NEU4 (setting [3]) it was ≤ 10 µM; on NEU3 (setting [5]), 15 ± 2 µM.

For the molecule `[N-]=[N+]=NCC(=O)N[C@@H]1C(O)C=C(C(=O)O)OC1C(O)C(O)CO` (stereo partly drawn) [compound 40, 5-(N-2-azidoacetyl)-2,3,5-trideoxy-D-glycero-D-galacto-2-nonulopyranosonic acid], at NEU4 (setting [3]), the IC50 is ≤ 10 µM.

`CC(=O)Nc1ccc(C(=O)NC[C@@H](O)[C@@H](O)[C@@H]2OC(C(=O)O)=C[C@H](O)[C@H]2NC(C)=O)cc1` [compound 58, 5-Acetamido-9-(4-acetamido)benzamido-2,6-anhydro-3,5-dideoxy-d-glycero-d-galacto-non-2-enonic acid]: the IC50 on NEU3 (setting [2]) was ≤ 10 µM.

On to `CC(=O)Nc1cccc(C(=O)NC[C@@H](O)[C@@H](O)[C@@H]2OC(C(=O)O)=C[C@H](O)[C@H]2NC(C)=O)c1` [compound 60, 5-Acetamido-9-(3-acetamido)benzamido-2,6-anhydro-3,5-dideoxy-d-glycero-d-galacto-non-2-enonic acid], for which the concentration for half-maximal inhibition (IC50) on NEU3 (setting [2]) is ≤ 10 µM.

Turning to `CCCCCc1cn(C[C@@H](O)[C@@H](O)[C@@H]2OC(C(=O)O)=C[C@H](O)[C@H]2NC(C)=O)nn1` [compound 63, 5-Acetamido-9-(4-pentyl)triazolyl-2,6-anhydro-3,5-dideoxy-d-glycero-d-galacto-non-2-enonic acid], the values for the IC50 at NEU4 (setting [3]) and at NEU3 (setting [2]) were ≤ 3 µM and ≤ 10 µM, respectively.

Consider `CCCCCC(=O)NC[C@@H](O)[C@@H](O)[C@@H]1OC(C(=O)O)=C[C@H](O)[C@H]1NC(=O)CCCCC` [compound 64, 5-Hexanamido-9-hexanamido-2,6-anhydro-3,5-dideoxy-d-glycero-d-galacto-non-2-enonic acid], for which the IC50 on NEU4 (setting [4]) and on NEU3 (setting [5]) was > 500 µM in each case.

As to `CCCCC(=O)NC[C@@H](O)[C@@H](O)[C@@H]1OC(C(=O)O)=C[C@H](O)[C@H]1NC(=O)CC` [compound 65, 5-Propionamido-9-pentanamido-2,6-anhydro-3,5-dideoxy-D-glycero-D-galacto-non-2-enonic acid], the half-maximal inhibitory concentration (IC50) on NEU3 (setting [5]) was > 500 µM.

For `CCCCCC(=O)N[C@H]1[C@H]([C@H](O)[C@H](O)CNC(C)=O)OC(C(=O)O)=C[C@@H]1O` [compound 68, 5-Hexanamido-9-acetamido-2,6-anhydro-3,5-dideoxy-D-glycero-D-galacto-non-2-enonic acid], at NEU3 (setting [5]), the IC50 is > 500 µM.

As for `CCCCCC(=O)N[C@H]1[C@H]([C@H](O)[C@H](O)CNC(=O)CC)OC(C(=O)O)=C[C@@H]1O` [compound 69, 5-Hexanamido-9-propionamido-2,6-anhydro-3,5-dideoxy-d-glycero-d-galacto-non-2-enonic acid], the IC50 on NEU3 (setting [5]) is > 500 µM.

As for `CCCCCC(=O)N[C@H]1[C@H]([C@H](O)[C@H](O)CNC(=O)CCC)OC(C(=O)O)=C[C@@H]1O` [compound 70, 5-Hexanamido-9-butanamido-2,6-anhydro-3,5-dideoxy-D-glycero-D-galacto-non-2-enonic acid], the IC50 on NEU4 (setting [4]) and on NEU3 (setting [5]) was > 500 µM throughout.
